Reference: US20250171437A1 (Agios Pharmaceuticals,Inc., priority 2022, published 2025)

target: T1, human PAH with the R408W mutation (A375 R408W cells) (Homo sapiens, UniProt P00439, R408W); assay: Cell Based Phenylalanine Flux Assay; settings: A375 R408W cells; 24 hrs with compound, then 20 μM sepiapterin and 800 μM 13C9,15N-Phenylalanine for 4 hours; 13C-Tyrosine by LC-MS; average where tested multiple times
T1 construct: expressed in transfected cells
T1 sequence (P00439 1-452 R408W): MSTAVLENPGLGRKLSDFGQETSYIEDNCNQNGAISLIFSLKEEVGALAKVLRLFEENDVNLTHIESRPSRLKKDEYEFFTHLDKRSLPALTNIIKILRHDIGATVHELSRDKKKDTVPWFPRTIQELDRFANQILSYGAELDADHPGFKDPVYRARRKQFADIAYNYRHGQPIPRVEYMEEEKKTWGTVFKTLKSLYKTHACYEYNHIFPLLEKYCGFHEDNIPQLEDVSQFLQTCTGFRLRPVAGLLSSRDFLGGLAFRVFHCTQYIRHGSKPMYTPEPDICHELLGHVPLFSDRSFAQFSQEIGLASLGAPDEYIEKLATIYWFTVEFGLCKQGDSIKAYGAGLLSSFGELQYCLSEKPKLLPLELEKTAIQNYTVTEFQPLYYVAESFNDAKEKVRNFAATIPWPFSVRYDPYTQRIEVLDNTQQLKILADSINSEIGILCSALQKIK
Outline: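 Phenylalanine-to-tyrosine flux is measured in A375 cells carrying stable human R408W PAH. After 24 h compound exposure, 13C9,15N-Phe (800 μM) with sepiapterin (20 μM) is supplied for 4 h and media 13C-Tyr is read by LC-MS; AC50s are binned.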

Q: Which AC50 does the source give for Cn1cc(-c2nnc(C(=O)N3CCc4[nH]cnc4[C@H]3c3nc4c(F)cc(F)cc4o3)o2)cn1 [Example 522, (S)-(4-(4,6-difluorobenzo[d]oxazol-2-yl)-6,7-dihydro-1H-imidazo[4,5-c]pyridin-5(4H)-yl)(5-(1-methyl-1H-pyrazol-4-yl)-1,3,4-oxadiazol-2-yl)methanone] here?
A: 500 to 1000 nM

Q: For CC(C)(O)c1nc(CF)c(C(=O)N2CCc3[nH]cnc3[C@@H]2c2nc3cc(F)ccc3o2)o1 [Example 212, (R)-(4-(5-fluorobenzo[d]oxazol-2-yl)-6,7-dihydro-1H-imidazo[4,5-c]pyridin-5(4H)-yl)(4-(fluoromethyl)-2-(2-hydroxypropan-2-yl)oxazol-5-yl)methanone], which AC50 is on record?
A: 1000 to 5000 nM

Q: How did the AC50 turn out when Cn1cnc(-c2nnc(C(=O)N3CCc4[nH]cnc4[C@H]3c3nc4c(F)ccc(F)c4o3)o2)c1 [Example 817, (S)-(4-(4,7-difluorobenzo[d]oxazol-2-yl)-6,7-dihydro-1H-imidazo[4,5-c]pyridin-5(4H)-yl)(5-(1-methyl-1H-imidazol-4-yl)-1,3,4-oxadiazol-2-yl)methanone] was run?
A: 500 to 1000 nM

Q: Cc1ccc2oc([C@@H]3c4nc[nH]c4CCN3C(=O)c3oc(-c4ccn(C)n4)nc3C(F)F)nc2c1 [Example 755, (S)-(4-(difluoromethyl)-2-(1-methyl-1H-pyrazol-3-yl)oxazol-5-yl)(4-(5-methylbenzo[d]oxazol-2-yl)-6,7-dihydro-1H-imidazo[4,5-c]pyridin-5(4H)-yl)methanone] was tested. Which AC50 did it give?
A: ≤ 500 nM

Q: Which AC50 does the source give for COc1ccc2oc([C@@H]3c4nc[nH]c4CCN3C(=O)c3nnc(-c4cnn(C)c4)o3)nc2c1 [Example 553, (S)-(4-(5-methoxybenzo[d]oxazol-2-yl)-6,7-dihydro-1H-imidazo[4,5-c]pyridin-5(4H)-yl)(5-(1-methyl-1H-pyrazol-4-yl)-1,3,4-oxadiazol-2-yl)methanone] here?
A: 500 to 1000 nM

Q: For O=C(c1cnn2cc(F)c(Cl)cc12)N1CCc2[nH]cnc2[C@H]1c1nc2cc(F)ccc2o1 [Example 219, (S)-(5-chloro-6-fluoropyrazolo[1,5-a]pyridin-3-yl)(4-(5-fluorobenzo[d]oxazol-2-yl)-6,7-dihydro-1H-imidazo[4,5-c]pyridin-5(4H)-yl)methanone], which AC50 is on record?
A: ≤ 500 nM

Q: With O=C(c1ocnc1C(F)F)N1CCc2[nH]cnc2[C@H]1c1nc2ccc(Br)cc2o1 [Example 145, (S)-(4-(6-bromobenzo[d]oxazol-2-yl)-6,7-dihydro-1H-imidazo[4,5-c]pyridin-5(4H)-yl)(4-(difluoromethyl)oxazol-5-yl)methanone] as the molecule, how does the AC50 read?
A: ≤ 500 nM

Q: For Cn1cc(-c2ccc3c(C(=O)N4CCc5[nH]cnc5[C@H]4c4nc5c(F)cccc5o4)cnn3c2)cn1 [Example 541, (S)-(4-(4-fluorobenzo[d]oxazol-2-yl)-6,7-dihydro-1H-imidazo[4,5-c]pyridin-5(4H)-yl)(6-(1-methyl-1H-pyrazol-4-yl)pyrazolo[1,5-a]pyridin-3-yl)methanone], which AC50 is on record?
A: ≤ 500 nM

Q: For Cn1cnc(-c2nc(C(F)(F)F)c(C(=O)N3CCc4[nH]cnc4[C@H]3c3nc4cc(F)ccc4o3)o2)c1 [Example 790, (S)-(4-(5-fluorobenzo[d]oxazol-2-yl)-6,7-dihydro-1H-imidazo[4,5-c]pyridin-5(4H)-yl)(2-(1-methyl-1H-imidazol-4-yl)-4-(trifluoromethyl)oxazol-5-yl)methanone], which AC50 is on record?
A: 500 to 1000 nM

Q: O=C(c1oc(-c2cccnc2)nc1C(F)F)N1CCc2[nH]cnc2[C@@H]1c1nc2cc(F)ccc2o1 [Example 419, (R)-(4-(difluoromethyl)-2-(pyridin-3-yl)oxazol-5-yl)(4-(5-fluorobenzo[d]oxazol-2-yl)-6,7-dihydro-1H-imidazo[4,5-c]pyridin-5(4H)-yl)methanone] was tested. Which AC50 did it give?
A: 500 to 1000 nM

same assay, conditions: A375 cells expressing R408W PAH; 24 hrs with compound, then 20 μM sepiapterin and 800 μM 13C9,15N-Phenylalanine for 4 hours; 13C-Tyrosine by LC-MS; average where tested multiple times

Q: How did the AC50 turn out when O=C(Cc1cnco1)N1CCc2[nH]cnc2C1c1nc2cc(F)ccc2o1 (stereo not drawn) was run?
A: 1000 to 5000 nM

Q: With Cn1nc(C(F)F)nc1C(=O)N1CCc2[nH]cnc2C1c1nc2cc(F)ccc2o1 (stereo not drawn) as the molecule, how does the AC50 read?
A: 1000 to 5000 nM
